From patent US10376512B1, “Crystal of aniline pyrimidine compound of trifluoroethyl substituted indole and salt thereof” (CHIA TAI TIANQING PHARMACEUTICAL GROUP CO., LTD., priority 2018, dated 2019)

Assay: Stability test for crystals under accelerated conditions (light, high temperature, high humidity)
Assay type: physicochemical
Details: light 5000 Lx±500 Lx; high temperature 60° C.±2° C.; high humidity 75% RH±5% RH; samples taken on the 5th, 10th and 30th day
Description: The stability of the crystal according to the disclosure may be detected by placing the crystal in a high temperature, a high humidity, or a lighting condition. 40-60° C. may be selected for the high temperature, the relative humidity of 75%-92.5% RH may be selected for the high humidity condition, and 5000 Lux may be selected for the lighting condition. The crystal stability may be evaluated by investigating a plurality of data, such as content, total content of impurities, or water content, of the sample, and comprehensively evaluating the parameters according to the properties of the product.
The stability of the crystal according to the disclosure was investigated under accelerated test conditions according to the Guiding Principles for Stability Test of Crude Drugs and Pharmaceutical Preparations. The stabilities of the crystals obtained in Examples 1-8 were tested in a light environment at 5000 Lx±500 Lx, a high temperature environment at 60° C.±2° C., and a high humidity environment at 75% RH±5% RH, respectively. Samples were taken on the 5th day, the 10th day, and the 30th day, respectively, and the appearance properties, moisture contents, and total impurities of related substances of the samples were recorded for comparison with the initial data.

## C=CC(=O)Nc1cc(Nc2nccc(-c3cn(CC(F)(F)F)c4ccccc34)n2)c(OC)cc1N(C)CCN(C)C [Example 3]
  stability (appearance properties, moisture contents, total impurities of related substances compared with the initial data): better stability
